Where two headings read alike, the source gives them in different places.
Experiments:
[1] = tested on: MCF-7 human breast cancer cells; test: MTT cell viability, MCF-7; assay type: cell-based; settings: 72 h, mean ± SD
Procedure: (§1) The six cell lines used in this work (MCF-7, MDA-MB-231, HeLa, […], MCF-10A and Hek-293) were purchased from American Type Culture Collection (ATCC, Manassas, VA, USA). MCF-7 human breast cancer cells, estrogen receptor (ER)-positive, were maintained in Dulbecco’s modified Eagle’s medium/nutrient mixture Ham F-12 (DMEM/F12), supplemented with 10% fetal bovine serum (FBS) and 100 U mL^−1 penicillin/streptomycin. MCF-10A human mammary epithelial cells, were cultured in DMEM/F12 medium, supplemented with 5% horse serum (HS, Thermo Fisher Scientific, Milan, Italy), 100 U mL^−1 penicillin/streptomycin, […] hydrocortisone, 20 ng mL^−1 human epidermal growth factor (hEGF), […] insulin, and […] cholera enterotoxin (Sigma–Aldrich, Milan, Italy). MDA-MB-231 human breast cancer cells, known as triple-negative cells (i.e., not overexpressing human epidermal growth factor receptor 2 (HER2), estrogen and progesterone receptors), were cultured in DMEM/F12 supplemented with 5% FBS, 1% L-glutamine and 100 U mL^−1 penicillin/streptomycin. HeLa human epithelial cervix carcinoma cells, estrogen receptor (ER)-negative, and […] human endometrial adenocarcinoma cells, estrogen receptor (ER)-positive, were maintained in minimum essential Eagle’s Medium (MEM), supplemented with 10% FBS, 1% L-glutamine, 100 U mL^−1 penicillin/streptomycin and 1% Non-Essential Amino Acids (NEAA). Hek-293 human embryonic kidney epithelial cells were cultured in DMEM high glucose (4.5 g L^−1), supplemented with 10% FBS, 1% L-glutamine and 100 U mL^–1 penicillin/streptomycin. Cells were maintained at 37 °C in a humidified atmosphere of 95% air and 5% CO2 and periodically screened for contamination.
(§2) Cell viability has been determined using the 3-(4,5-dimethylthiazol-2-y1)-2,5-diphenyltetrazolium bromide (MTT, Sigma–Aldrich, Milan, Italy) assay. Cells have been seeded on 48-well plates and grown in complete medium. Before being treated, cells have been starved in serum free medium for 24 h for allowing cell cycle synchronization. […] Data are representative of three independent experiments; standard deviations (SD) have been shown.

[2] = tested on: MDA-MB-231 human breast cancer cells; test: MTT cell viability, MDA-MB-231; assay type: cell-based; settings: 72 h, mean ± SD
Procedure: as §1, §2

[3] = tested on: HeLa human epithelial cervix carcinoma cells; test: MTT cell viability, HeLa; assay type: cell-based; settings: 72 h, mean ± SD
Procedure: as §1, §2

[4] = tested on: ISHIKAWA human endometrial adenocarcinoma cells; test: MTT cell viability, […]; assay type: cell-based; settings: 72 h, mean ± SD
Procedure: as §1, §2

[5] = tested on: MCF-10A human mammary epithelial cells; test: MTT cell viability, normal MCF-10A; assay type: cell-based; settings: 72 h, mean ± SD
Procedure: as §1, §2

[6] = tested on: Hek-293 human embryonic kidney epithelial cells; test: MTT cell viability, normal Hek-293; assay type: cell-based
Procedure: as §1, §2

[7] = tested on: MDA-MB-231 cells; test: Immunofluorescence of microtubules, MDA-MB-231; assay type: cell-based, human; settings: at IC50 value, 24 h
Procedure: Cells were grown on glass coverslips in full media, then serum-deprived for 24 h and exposed to compounds for 24 h (concentration equal to its IC50 value). Then, the cells after PBS-washed, were fixed with cold methanol (15 min/−20 °C) and incubated with primary antibody, diluted in blocking solution (4 °C/overnight), as previously described. The mouse anti-β-Actin (69879) and the rabbit anti-β tubulin (9104) were purchased from Santa Cruz Biotechnology and used at 1:100 dilution. Coverslips were then washed 3 times with PBS, then fixed cells were incubated with the secondary antibody Alexa Fluor® 568 conjugate goat-anti-mouse and Alexa Fluor® 488 conjugate goat-anti-rabbit (1:500, Thermo Fisher Scientific, Waltham, MA, USA). Nuclei were stained using DAPI (Sigma–Aldrich, Mila, Italy) for 10 min at a concentration of 0.2 μg/mL then washed 3 times with PBS. Fluorescence was detected using a fluorescence microscope (Leica DM 6000). LAS-X software was used to acquire and process all images.
Figure 5 Immunofluorescence studies. […] Panels A: DAPI, excitation/emission wavelength 350 nm/460 nm; panels B: β-tubulin (Alexa Fluor® 488) excitation/emission wavelength 490 nm/515 nm; panels C show a merge. Representative fields are shown.

[8] = tested on: MDA-MB-231 cells; test: Detection of intracellular ROS (DCF-DA); assay type: cell-based, human
Procedure: We used 2,7-dichlorofluorescin diacetate (DCF-DA) as a fluorometric probe for ROS detection and their production was examined under an inverted fluorescence microscope, as already reported.
Cells were grown on glass coverslips until the treatment with compound or menadione (used as positive control) (Sigma–Aldrich, Milan, Italy). Then, cells were incubated with 10 μM 2′-7′-Dichlorofluorescein diacetate (Sigma–Aldrich, Milan, Italy) for 40 min at 37 °C in a 5% CO2 incubator, as previously described. Then, DAPI (0.2 μg mL^−1) counterstain was performed for 10 min at room temperature, in the dark. Cells were then washed three times with cold PBS, adding one drop of mounting solution, then they were observed and imaged under a fluorescence microscope (Leica DM6000; 20× magnification) with excitation/emission wavelength maxima of 490 nm/515 nm (DCF) or 350 nm/460 nm (DAPI). Images are representative of three independent experiments.
Images were acquired at 20× magnification. […] Fields are representative of three separate experiments.

[9] = tested on: MDA-MB-231 cells; settings: at IC50 value, 24 h
Procedure: At this purpose, we performed immunostaining studies using the mitochondrial probe MitoTracker Deep Red FM and an anti-cytochrome c antibody, to follow the possible release of this protein from the mitochondrial district to the cytoplasm.
The same protocol was performed for mitochondrial staining. […] The primary antibody used in this case was the mouse anti-cytochrome c (556 433), purchased from BD Biosciences. The secondary antibodies used was Alexa Fluor® 488 conjugate goat-anti-mouse (1:500 dilution), purchased from Thermo Fisher Scientific, Waltham, MA, USA.
Images were acquired at 63x magnification and representative fields are shown.

[10] = tested on: MDA-MB-231 cells; settings: at IC50 value, 24 h; remark: listed apart in the source
[11] = tested on: caspase-9; settings: 5 μM, 24 h, MDA-MB-231 cells
[12] = tested on: caspase-8; settings: 5 μM, 24 h, MDA-MB-231 cells
[13] = tested on: MDA-MB-231 cells; test: Muse cell cycle assay; settings: at IC50, 72 h
[14] = tested on: caspases 3/7; test: Caspase-Glo assay, caspases 3/7; settings: 5 μM, 24 h, MDA-MB-231 cells

`C[n+]1c(Cl)c(Cl)n(CC(O)c2ccccc2)[c]1[Au-][c]1n(CC(O)c2ccccc2)c(Cl)c(Cl)[n+]1C.[Cl][Au-][Cl]` (racemic) [AuL7, bis-[4,5-dichloro-(N-methyl-N’(2-hydroxy-2-phenyl)ethyl-imidazole-2-ylidene)gold(I)]^+[dichloro-gold]^−] was tested, and the IC50 [1] was 5.18 ± 0.4 µM, the IC50 [2] was 2.1 ± 0.7 µM and the IC50 [3] was 31.9 ± 0.5 µM. For the same compound, the IC50 [4] was 29.9 ± 0.9 µM, the IC50 [5] was > 200 µM and the “IC50 MCF-10A” value [5] was “inactive”. For the same compound, the IC50 ([6]; normal cells, MTT, 72 h, mean ± SD, read-out: IC50 Hek-293) was 65 µM, the IC50 ([6]; read-out: IC50 Hek-293 of AuL7 after Quercetin pre-treatment, pre-treatment for 4 h with Quercetin (at 50 μM)) was 96.9 ± 1.1 µM and the “effect on microtubule network, MDA-MB-231” value [7] was “vinblastine-like mode of action”. For the same compound, the “ROS production, fold lesser compared to Men-treated cells” value ([8]; DCF fluorescence quantified by ImageJ) was 1.5 fold, the “ROS production (DCF green fluorescence)” value ([8]; fluorescence microscopy) was “significantly higher with respect to the vehicle-treated cells” and the cytochrome c localization [9] was “cytochrome c release and diffusion into the cytoplasmic compartment”. The “mitochondrial integrity (MitoTracker Deep Red FM)” value [9] was “loss of mitochondrial structural integrity”, the “apoptosis (TUNEL)” value [10] was “green nuclear fluorescence” and the caspase-9 activity [11] was “discrete increase”. The caspase-8 activity [12] was “unchanged”, the “increase of the percentage of cells in G2/M phase vs DMSO control” value [13] was 33.2% and the “increase of the percentage of cells in S phase vs DMSO control” value [13] was 16.1%. The “caspases 3/7 activity” value [14] was “clear increase”.

— article PMC7281280, “Is the Way to Fight Cancer Paved with Gold? Metal-Based Carbene Complexes with Multiple and Fascinating Biological Features” (Pharmaceuticals, 2020)
